The values that follow come from ChEMBL document CHEMBL1133460, “Synthesis and biological evaluation of certain alpha,beta-unsaturated ketones and their corresponding fused pyridines as antiviral and cytotoxic agents” (J Med Chem, 2000).

A short description of data set [1]: Full panel mean-graph midpoint (MG-MID).
Data set [2] concerns Panel renal (Carcinoma cell lines). The data set can be described thus: In vitro median growth inhibitory concentration against renal cancer cell lines. Format: functional. Particulars: Homo sapiens; call rule not given here.
The subject of data set [3] is NSCLC. The data set can be described thus: In vitro median growth inhibitory concentration against non-small-cell lung cancer. Type of data set: functional. The settings on record: Homo sapiens.
Data set [4] concerns Panel prostate (Carcinoma cell lines). Nature of the data set: In vitro median growth inhibitory concentration against prostate cancer cell lines. Type of data set: functional. The settings on record: Homo sapiens.
Data set [5] in a line: In vitro median growth inhibitory concentration against colon cancer cell lines. Format: functional. The settings on record: Homo sapiens.
Data set [6] deals with Ovarian cancer cell line. Nature of the data set: In vitro median growth inhibitory concentration against ovarian cancer cell lines. Type of data set: functional. Particulars: Homo sapiens.
For data set [7], the system named is Tumor cell line. Nature of the data set: (§1) In vitro median growth inhibitory concentration against breast cancer cell lines. Format: functional. Particulars: Homo sapiens.
Data set [8] relates to MT4. The data set can be described thus: In vitro inhibitory activity against uninfected T4 cells. Type of data set: functional, cell-based. The settings on record: Homo sapiens.
Data set [9] has as its system Panel leukemia (Carcinoma cell lines). The data set can be described thus: In vitro median growth inhibitory conc. against leukemia was estimated. Type of data set: functional. Particulars: Homo sapiens.
Data set [10] has as its system Human immunodeficiency virus 1. The data set can be described thus: In vitro effective concentration against HIV-1 cytopathic effect in T4 cells; Inactive. Type of data set: functional, organism-based. Background: Cytopathic effects are the visible damage that an infection or toxin causes in cultured cells.
In data set [11] the test system is Panel melanoma (Carcinoma cell lines). Nature of the data set: In vitro median growth inhibitory concentration against melanoma cell lines. Type of data set: functional. The settings on record: Homo sapiens.
For data set [12], the species on record is Homo sapiens. Nature of the data set: Selectivity ratio between the full panel MG-MID and leukemia subpanel MG-MID was determined. Format: functional.
In data set [13] the test system is Panel CNS (Carcinoma cell lines). The data set can be described thus: In vitro median growth inhibitory concentration against CNS cancer cell lines. Format: functional. The settings on record: Homo sapiens.
Data set [14] is described as follows: In vitro effective concentration against HIV-1 cytopathic effect in T4 cells. Particulars: Homo sapiens. Type of data set: functional, cell-based.
Data set [15] in a line: Therapeutic index (IC50/EC50) was determined. The settings on record: read-out: TI50.
The test system of data set [16] is Human alphaherpesvirus 1. The data set can be described thus: In vitro antiviral activity against Herpes Simplex-1 virus (HSV-1) expressed as percent reduction in the number of viral plaques. On the set-up: concentration or dose not given beside the values. Format: functional.
The test system of data set [17] is Breast cancer cell line. Nature of the data set: In vitro growth inhibitory concentration against breast cancer cell lines. Type of data set: functional. Particulars: Homo sapiens.
Data set [18] concerns Tumor cell line. Nature of the data set: In vitro growth inhibitory concentration against non-small-cell lung cancer cell lines. Type of data set: functional. Particulars: Homo sapiens.
For data set [19], the system named is Ovarian cancer cell line. Nature of the data set: In vitro growth inhibitory concentration against ovarian cancer cell lines. Particulars: Homo sapiens. Format: functional.
Data set [20] concerns Panel renal (Carcinoma cell lines). The data set can be described thus: In vitro growth inhibitory concentration against renal cancer cell lines. Type of data set: functional. Particulars: Homo sapiens.
Data set [21] relates to Human alphaherpesvirus 1. Nature of the data set: Minimum antiviral concentration proved to be lethal to viral population in uM. Type of data set: functional.
Data set [22] concerns Panel prostate (Carcinoma cell lines). The data set can be described thus: In vitro growth inhibitory concentration against prostate cancer cell lines. Format: functional. Particulars: Homo sapiens.
For data set [23], the system named is Breast cancer cell line. Described as §1. Type of data set: functional. The settings on record: Homo sapiens.
In data set [24] the test system is Human alphaherpesvirus 1. The data set can be described thus: concentration caused 50% loss of the monolayer present around the viral plaques in ug/mL. Type of data set: functional, organism-based.
Data set [25] concerns Panel melanoma (Carcinoma cell lines). The data set can be described thus: In vitro growth inhibitory concentration against melanoma cancer cell lines. Format: functional. The settings on record: Homo sapiens.
The test system of data set [26] is Human alphaherpesvirus 1. Nature of the data set: 50% loss of the monolayer present around the viral plaques in uM. Type of data set: functional, organism-based.
Data set [27] has as its system Human alphaherpesvirus 1. Nature of the data set: Minimum antiviral concentration proved to be lethal to viral population in ug/mL. Type of data set: functional.
Data set [28] deals with Panel CNS (Carcinoma cell lines). The data set can be described thus: In vitro growth inhibitory concentration against CNS cancer cell lines. Type of data set: functional. Particulars: Homo sapiens.
Data set [29] deals with Panel leukemia (Carcinoma cell lines). Nature of the data set: In vitro growth inhibitory concentration against leukemia tumor cell lines. Format: functional. The settings on record: Homo sapiens.
A short description of data set [30]: In vitro growth inhibitory concentration against colon cancer tumor cell lines. Format: functional. Particulars: Homo sapiens.
Data set [31] concerns NSCLC. Nature of the data set: In vitro growth inhibitory concentration against non-small-cell lung cancer. Type of data set: functional. The settings on record: Homo sapiens.
The test system of data set [32] is Tumor cell line. Nature of the data set: Median lethal concentration was estimated. Format: ADME, cell-based. The settings on record: human.
A short description of data set [33]: Full panel mean-graph midpoint (MG-MID).

pEC50, pIC50: −log10 of the molar value. Converted amounts (≈) assume the structure as drawn. “And” between values parts separate entries of the source, which are not always exact repeats. Equal entries are not always repeated. Where only a bound is given, the exact number is not on record here.

In turn, `COc1ccc(/C=C2\CN(C)CC3C2=NN(c2ccccc2)C3c2ccc(OC)cc2)cc1` (configuration not stated) registered an MG-MID in [1] of 72.9 µM. In addition, the GI50 (as a rule, the concentration that inhibits growth by half) in data set [2] is 54.7 µM; in data set [3], 82.1 µM; in data set [4] it was over 100 µM; in [5] it was over 100 µM; in data set [6], 80.7 µM; in data set [7], 91.8 µM. For the same molecule, the GI50 in [9] is over 100 µM; in [11], 77.7 µM; in [13] it was 63.1 µM. Also, the pIC50 – broadly, −log10 of the IC50, conventionally taken in molar units – in data set [8] is under 3.70. Also, the EC50 entry in data set [10] was “Not Active”. For the same molecule, the Ratio in data set [12] is 0.7.

Regarding `CN1C/C(=C\c2ccncc2)C(=O)/C(=C/c2ccncc2)C1`, in [14], the pEC50 – broadly, the EC50 on a negative log10 scale, so that one unit is a factor of ten – is 4.19. The molecule further had a negative logarithm of the IC50 (pIC50) in data set [8] of under 3.70. In addition, the selectivity ratio in data set [15] is over 3.09.

`Cc1ccc(/C=C2\CN(C)CC3=C2N=C(S)NC3c2ccc(C)cc2)cc1` (configuration not stated): in [16], the Reduction stood at 45%. The TGI (usually the concentration at which net growth stops) was 88.8 µM in [17]; 89.9 µM in data set [18]; 94 µM in [19]; 96.9 µM in data set [20]; over 100 µM in data set [22]; over 100 µM in data set [25]. In addition, the figures for the concentration for total growth inhibition (TGI) in [28], in [29] and in data set [30] were 94.1 µM, 62.3 µM and 83.6 µM, respectively. For the same molecule, the MG-MID in [1] was 34.5 µM and 86.5 µM. The 50% growth inhibitory concentration (GI50) in data set [2] was 60.8 µM; in data set [3], 59.6 µM; in [4], 38.3 µM; in data set [5], 37.1 µM; in data set [6], 51.2 µM; in data set [23], 39.4 µM. Also, the GI50 in data set [9] is 19.2 µM; in data set [11], 58.8 µM; in data set [13], 53.7 µM. Besides, the MAC in data set [21] is 0.27 µM; in [27], 0.1 µg/mL. Further, the IC50 (usually the concentration that inhibits the measured activity by half) in data set [24] came out at 0.07 µg/mL (≈ 0.186 µM). The pIC50 in data set [26] is 6.72; in data set [8], 4.56. Moreover, the EC50 result in data set [10] is “Not Active”. Further, the Ratio in data set [12] was determined as 1.8.

As for `COc1ccc(/C=C2\CN(C)CC3=C2N=C(S)NC3c2ccc(OC)cc2)cc1` (configuration not stated), the TGI amounted to 68.1 µM in [17]; 93.6 µM in [31]; 76.4 µM in data set [19]; 97.2 µM in data set [20]; 30.1 µM in data set [22]; 83.1 µM in [25]. In addition, the TGI in [28] was 81.9 µM; in data set [29] it was 36.3 µM; in data set [30] it was 76.3 µM. Besides, the MG-MID in [1] was determined as 4.9 µM; in data set [33], 56.3 µM. In addition, the GI50 in data set [2] worked out at 5.9 µM; in data set [3], 6.5 µM; in data set [4], 9.1 µM; in data set [5], 4 µM; in data set [6] it was 5 µM; in data set [23] it was 11.1 µM. The GI50 in [9] was 2 µM; in [11], 11.7 µM; in data set [13], 30 µM. The LC50 (in general, the concentration that kills 50% of the test population) in data set [32] is 91.8 µM. The molecule further showed a negative-log IC50 (pIC50) in data set [8] of 5.17. In addition, in data set [10], the EC50 result is listed as “Not Active”. In addition, the Ratio in data set [12] was 2.5.
